Experimental data from US10435405B2, “Pyrazolopyridine compounds and uses thereof” (Incyte Corporation, priority 2016, dated 2019).

Biological target: HPK1 (Homo sapiens (Human), UniProt Q92918)
Experiment: HPK1 Kinase Binding Assay
Description: A stock solution of 1 mM test compound was prepared in DMSO. The compound plate was prepared by 3-fold and 11-point serial dilutions. 0.1 μL of the compound in DMSO was transferred from the compound plate to the white 384 well polystyrene plates. The assay buffer contained 50 mM HEPES, pH 7.5, 0.01% Tween-20, 5 mM MgCl2, 0.01% BSA, and 5 mM DTT. 5 μl of 4 nM active HPK1 (SignalChem M23-11G) prepared in the buffer was added to the plate. The enzyme concentration given was based on the given stock concentration reported by the vender. 5 μl of 18 nM tracer 222 (ThermoFisher PV6121) and 4 nM LanthaScreen Eu-Anti GST antibody (ThermoFisher PV5595) were added. After one hour incubation at 25° C., the plates were read on a PHERAstar FS plate reader (BMG Labtech). Ki values were determined.

Sequence of HPK1 (Q92918 1-346): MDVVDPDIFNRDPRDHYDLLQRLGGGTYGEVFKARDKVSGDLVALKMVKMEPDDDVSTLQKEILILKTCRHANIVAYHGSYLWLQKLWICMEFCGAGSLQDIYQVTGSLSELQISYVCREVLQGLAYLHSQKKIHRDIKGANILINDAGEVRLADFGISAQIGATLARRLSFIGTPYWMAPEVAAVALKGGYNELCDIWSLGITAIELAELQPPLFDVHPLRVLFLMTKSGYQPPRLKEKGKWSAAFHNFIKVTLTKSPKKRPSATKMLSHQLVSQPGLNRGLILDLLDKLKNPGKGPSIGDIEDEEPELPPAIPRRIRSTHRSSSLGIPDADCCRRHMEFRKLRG

| Structure (SMILES) | Ki |
| --- | --- |
| COc1cccc(F)c1-c1cc2c(NC(=O)c3ccc(N4CCNCC4)cc3)n[nH]c2cn1 [Example 33, N-(5-(2-Fluoro-6-methoxyphenyl)-1H-pyrazolo[3,4-c]pyridin-3-yl)-4-(piperazin-1-yl)benzamide] | ≤ 0.1 µM |
| CN1CCN(c2ccc(-c3n[nH]c4cnc(-c5c(F)ccc6c5CCCC6N)cc34)cc2)CC1 (stereo not shown) [Example 241, 6-Fluoro-5-(3-(4-(4-methylpiperazin-1-yl)phenyl)-1H-pyrazolo[3,4-c]pyridin-5-yl)-1,2,3,4-tetrahydronaphthalen-1-amine] | ≤ 0.1 µM |
| COc1cccc(F)c1-c1cc2c(NC(=O)c3ccc4c(c3)OCO4)n[nH]c2cn1 [Example 13, N-(5-(2-Fluoro-6-methoxyphenyl)-1H-pyrazolo[3,4-c]pyridin-3-yl)benzo[d][1,3]dioxole-5-carboxamide] | ≤ 0.1 µM |
| COc1cccc(F)c1-c1cc2c(NC(=O)c3cccc(C#N)c3)n[nH]c2cn1 [Example 7, 3-Cyano-N-(5-(2-fluoro-6-methoxyphenyl)-1H-pyrazolo[3,4-c]pyridin-3-yl)benzamide] | ≤ 0.1 µM |
| CC(C)NCc1cc(F)c(-c2cc3c(NC(=O)c4cccc(N5CCN(C)CC5)c4F)n[nH]c3cn2)c(F)c1 [Example 150, N-(5-(2,6-Difluoro-4-((isopropylamino)methyl)phenyl)-1H-pyrazolo[3,4-c]pyridin-3-yl)-2-fluoro-3-(4-methylpiperazin-1-yl)benzamide] | ≤ 0.1 µM |
| CN1CCN(c2ccc(C(=O)Nc3n[nH]c4cnc(-c5c(F)cccc5C(F)(F)F)cc34)cc2)CC1 [Example 153, N-(5-(2-Fluoro-6-(trifluoromethyl)phenyl)-1H-pyrazolo[3,4-c]pyridin-3-yl)-4-(4-methylpiperazin-1-yl)benzamide] | ≤ 0.1 µM |

Next, values leading:

| Ki | Structure (SMILES) |
| --- | --- |
| ≤ 0.1 µM | COc1cc(NC(=O)CN2CCCC2)cc(F)c1-c1cc2c(-c3cnn(C)c3)n[nH]c2cn1 [Example 74, N-(3-Fluoro-5-methoxy-4-(3-(1-methyl-1H-pyrazol-4-yl)-1H-pyrazolo[3,4-c]pyridin-5-yl)phenyl)-2-(pyrrolidin-1-yl)acetamide] |
| ≤ 0.1 µM | CNCc1cccc(-c2cc3c(-c4cnn(C)c4)n[nH]c3cn2)c1C [Example 86, N-Methyl-1-(2-methyl-3-(3-(1-methyl-1H-pyrazol-4-yl)-1H-pyrazolo[3,4-c]pyridin-5-yl)phenyl)methanamine] |
| ≤ 0.1 µM | CN1CCN(c2ccc(-c3n[nH]c4cnc(-c5c(F)cc6c(c5F)C(O)CC6)cc34)cn2)CC1 (stereo not shown) [Example 213, 5,7-Difluoro-6-(3-(6-(4-methylpiperazin-1-yl)pyridin-3-yl)-1H-pyrazolo[3,4-c]pyridin-5-yl)-2,3-dihydro-1H-inden-1-ol] |
| ≤ 0.1 µM | CNC(C)c1cc(C)c(-c2cc3c(-c4cnn(C5CC5)c4)n[nH]c3cn2)c(F)c1 (single isomer, unassigned) [Example 228, 1-(4-(3-(1-Cyclopropyl-1H-pyrazol-4-yl)-1H-pyrazolo[3,4-c]pyridin-5-yl)-3-fluoro-5-methylphenyl)-N-methylethanamine] |
| ≤ 0.1 µM | Cc1cc(CNC2CC(O)C2)cc(F)c1-c1cc2c(-c3cnn(C)c3)n[nH]c2cn1 (stereo not shown) [Example 181, 3-(3-Fluoro-5-methyl-4-(3-(1-methyl-1H-pyrazol-4-yl)-1H-pyrazolo[3,4-c]pyridin-5-yl)benzylamino)cyclobutanol] |
| ≤ 0.1 µM | CNCc1ccc(F)c(-c2cc3c(-c4cnn(C)c4)n[nH]c3cn2)c1C [Example 92, 1-(4-Fluoro-2-methyl-3-(3-(1-methyl-1H-pyrazol-4-yl)-1H-pyrazolo[3,4-c]pyridin-5-yl)phenyl)-N-methylmethanamine] |
| ≤ 0.1 µM | Cc1cc(C2CCCCN2)cc(F)c1-c1cc2c(-c3cnn(C4CC4)c3)n[nH]c2cn1 (single isomer, unassigned) [Example 233, 3-(1-Cyclopropyl-1H-pyrazol-4-yl)-5-(2-fluoro-6-methyl-4-(piperidin-2-yl)phenyl)-1H-pyrazolo[3,4-c]pyridine] |
